Earlier results as cited in article PMC2787808 (Peptides, 2009).

Legend:
[1] = system: G17-Gly binding sites on DLD-1 cells; settings: previous study; ref [11]
[2] = system: HT-29 cells; settings: ref [2]

With “pGlu-Gly-Pro-Trp-Leu-(Glu)5-Ala-Tyr [G17(1–12)]” as the substance, how does the “Binding sites and affinity on DLD-1 cells” value [1] read?
The value was “binds to two sites”.

And the “Stimulation of proliferation of HT-29 cells” value [2]?
The value was “stimulates nonbiphasic proliferation”.
